One compound from article PMC4522657, “Identification of a DYRK1A Inhibitor that Induces Degradation of the Target Kinase using Co-chaperone CDC37 fused with Luciferase nanoKAZ” (Scientific Reports, 2015) can be followed below.

For assay [1], the target named is T1, MAP2K7_Cascade (Homo sapiens, UniProt O14733).
T1 construct: purchased Carna Biosciences
The experiment in a line: Kinase panel, CaNDY 1 µM. The class given is biochemical. The following applies: CaNDY 1 µM relative to DMSO.

In assay [2] the target is T2, MAPKAPK3 (Homo sapiens, UniProt Q16644).
T2 construct: purchased Carna Biosciences
Kind of assay: Kinase panel, CaNDY 1 µM. The assay is classed as biochemical. The following applies: CaNDY 1 µM relative to DMSO.

Assay [3] deals with T3, PDGFRα(T674I) (Homo sapiens, UniProt P16234, T674I).
T3 construct: purchased Carna Biosciences
Kind of assay: Kinase panel, CaNDY 1 µM. The assay is classed as biochemical. The following applies: CaNDY 1 µM relative to DMSO.

Assay [4] addresses T4, MSK1 (Homo sapiens, UniProt O75582).
T4 construct: purchased Carna Biosciences
Kind of assay: Kinase panel, CaNDY 1 µM. The assay is classed as biochemical. The following applies: CaNDY 1 µM relative to DMSO.

Assay [5] deals with T5, LYNb (Homo sapiens, UniProt P07948).
T5 construct: purchased Carna Biosciences
The experiment in a line: Kinase panel, CaNDY 1 µM. The following applies: CaNDY 1 µM relative to DMSO. The class given is biochemical.

The target in assay [6] is T6, CLK2 (Homo sapiens, UniProt P49760).
T6 construct: purchased Carna Biosciences
The experiment in a line: Kinase panel, CaNDY 1 µM. The class given is biochemical.

Assay [7] has as its target T7, NDR2 (Homo sapiens, UniProt Q9Y2H1).
T7 construct: purchased Carna Biosciences
The experiment in a line: Kinase panel, CaNDY 1 µM. The assay is classed as biochemical. The following applies: CaNDY 1 µM relative to DMSO.

Assay [8] has as its target T8, CK2α (Homo sapiens, UniProt P68400).
T8 construct: endogenous in cells; host or cells: HEK293
The experiment in a line: Western blot of kinase expression in HEK293 cells. The assay is classed as cell-based. The following applies: CaNDY 2 μM, 4 days. The procedure: To check selectivity of CaNDY for other kinases, we first examined protein expression of several kinases in HEK293 cells treated with CaNDY (2 μM) for 4 days. […] Third, protein expression of these kinases targeted by CaNDY (DYRK1A, DYRK1B, CLK1, and Haspin) was reassessed by Western blot analysis as performed in Fig. 7b.
(§1) Western blot analysis was performed using the antibodies described above. In brief, total cell lysates were separated by SDS-PAGE (5–20% gels; ATTO, Tokyo, Japan) under reducing conditions and then transferred to a PVDF membrane (PALL, SP, Brazil). Antibody reactions were performed with Can Get Signal® Immunoreaction Enhancer Solution (Toyobo). Peroxidase activities on the membrane were visualized with ECL Western Blotting Detection Reagents (GE Healthcare) or ImmunoStar® LD (Wako Pure Chemical Industries, Osaka, Japan), and a ChemiDoc^TM MP Imaging System (Bio-Rad, Hercules, CA, USA).
Background: Immunoblotting shows a protein as a band on a membrane.

Assay [9] addresses T9, 3xFLAG-DYRK1A (Homo sapiens, UniProt Q13627).
T9 construct: F2A peptide linking to EGFP (2A skipping releases EGFP; a 2A remnant may stay on DYRK1A) (C); expressed in transfected cells; host or cells: 293T cells, transient
The experiment in a line: Western blot of 3xFLAG-DYRK1A level in transfected 293T cells. The class given is cell-based. The following applies: CaNDY 2 μM, 8 h, compared with DMSO. How it is done: To investigate whether DYRK1A is a client kinase of the CDC37/HSP90 system, we used a HSP90 inhibitor, ganetespib. 293T cells were transiently transfected with an expression vector of 3xFLAG-tagged DYRK1A (3xFLAG-DYRK1A). At 24 h after transfection, the cells were treated with ganetespib for the indicated time (0–8 h). Total cell lysates were collected and subjected to SDS-PAGE followed by Western blot analysis.
Figure 1 Ganetespib, a HSP90 inhibitor, decreases the DYRK1A protein level. 293T cells were transiently transfected with an expression vector for 3xFLAG-DYRK1A. At 24 h after transfection, the cells were treated with ganetespib (100 nM) and collected 0 and 8 h after treatment. Total cell lysates were subjected to SDS-PAGE followed by Western blot analysis using antibodies against FLAG and GAPDH. In the control group (DMSO), expression of 3xFLAG-DYRK1A increased at 8 h compared to 0 h, and ganetespib suppressed this increase of 3xFLAG-DYRK1A.
as §1

The subject of assay [10] is CDC37-nanoKAZ. Kind of assay: Luminescence activity of CDC37-nanoKAZ in total cell lysates. The class given is cell-based. The following applies: counter-test, same concentrations as interaction assay. The procedure: The luminescence activity of the cell lysates was determined using a Centro LB 960 Microplate Luminometer (Berthold Technologies, Bad Wildbad, Germany). A reaction mixture containing bis-coelenterazine (final concentration of 0.1–1 μg/100 μL) in PBS containing 0.02% Tween20 and 20 mM EDTA was injected. The luminescence intensity was recorded at 0.1 s intervals for 10 s or 10 min. The maximum luminescence intensity (Imax), represented in relative luminescence units (rlu), was used in the study.
(§2) Targeting the DYRK1A/CDC37 complex
(a-d) Luminescence intensities of total cell lysates of cells treated with the indicated […]
Figure 4. Luminescence intensities at each concentration are shown as fold-changes relative to that at 0 nM. Points are means ± SD (n = 3).
(§3) (1 picture or pasted object on this page, not shown here)
Luminescence intensities of total cell lysates of cells treated with the indicated concentrations of CaNDY, as also used in Figure 5c. Luminescence intensities at each concentration are shown as fold-changes to that at 0 nM. Points are means ± SD (n = 3).

Assay [11] addresses T10, EGFR(d746-750/T790M) (Homo sapiens, UniProt P00533, DEL746-750/T790M).
T10 construct: purchased Carna Biosciences
The experiment in a line: Kinase panel, CaNDY 1 µM. The assay is classed as biochemical. The following applies: CaNDY 1 µM relative to DMSO.

For assay [12], the target named is T11, MNK2 (Homo sapiens, UniProt Q9HBH9).
T11 construct: purchased Carna Biosciences
Kind of assay: Kinase panel, CaNDY 1 µM. The class given is biochemical. The following applies: CaNDY 1 µM relative to DMSO.

The target of assay [13] is T12, FGFR3 (Homo sapiens, UniProt P22607).
T12 construct: purchased Carna Biosciences
The experiment in a line: Kinase panel, CaNDY 1 µM. The following applies: CaNDY 1 µM relative to DMSO. The class given is biochemical.

Assay [14] concerns the target T13, CaMK2β (Homo sapiens, UniProt Q13554).
T13 construct: purchased Carna Biosciences
Kind of assay: Kinase panel, CaNDY 1 µM. The class given is biochemical. The following applies: CaNDY 1 µM relative to DMSO.

Assay [15] concerns the target T14, PKCβ1 (Homo sapiens, UniProt P05771).
T14 construct: purchased Carna Biosciences
The experiment in a line: Kinase panel, CaNDY 1 µM. The following applies: CaNDY 1 µM relative to DMSO. The class given is biochemical.

In assay [16] the test system is mRNA coding for DYRK1A. The experiment in a line: Reverse transcription and quantitative PCR in HEK293 cells. The class given is cell-based. The following applies: CaNDY 2 µM, four days. How it is done:
Total RNA of the cells was isolated using Sepasol-RNA I Super G (Nacalai Tesque), and then subjected to reverse transcription with Prime Script RTase (Takara Bio). Realtime PCR was performed with FastStart Universal SYBR Green Master (Rox) (Roche Diagnostics, Basel, Switzerland) using StepOnePlus Real-Time PCR System (Applied Biosystems, Life technologies). The nucleotide sequences of the primers are as follows: the forward primer for DYRK1A, 5′-[…]-3′; the reverse primer for DYRK1A, 5′-[…]-3′; the forward primer for GAPDH, 5′-[…]-3′; and the reverse primer for GAPDH, 5′-[…]-3′.
as §2
Figure S6. Expression of endogenous DYRK1A mRNA in HEK293 cells treated with
HEK293 cells were cultured in the presence of CaNDY (2 µM) for four days, and subjected to
reverse transcription followed by quantitative PCR analysis. Bar graphs show means ± SD (n =
as §3

The target of assay [17] is T15, p70S6K (Homo sapiens, UniProt P23443).
T15 construct: purchased Carna Biosciences
The experiment in a line: Kinase panel, CaNDY 1 µM. The class given is biochemical. The following applies: CaNDY 1 µM relative to DMSO.

The target in assay [18] is T16, PIM1 (Homo sapiens, UniProt P11309).
T16 construct: purchased Carna Biosciences
The experiment in a line: Kinase panel, CaNDY 1 µM. The assay is classed as biochemical. The following applies: CaNDY 1 µM relative to DMSO.

T6 sequence (P49760 whole entry): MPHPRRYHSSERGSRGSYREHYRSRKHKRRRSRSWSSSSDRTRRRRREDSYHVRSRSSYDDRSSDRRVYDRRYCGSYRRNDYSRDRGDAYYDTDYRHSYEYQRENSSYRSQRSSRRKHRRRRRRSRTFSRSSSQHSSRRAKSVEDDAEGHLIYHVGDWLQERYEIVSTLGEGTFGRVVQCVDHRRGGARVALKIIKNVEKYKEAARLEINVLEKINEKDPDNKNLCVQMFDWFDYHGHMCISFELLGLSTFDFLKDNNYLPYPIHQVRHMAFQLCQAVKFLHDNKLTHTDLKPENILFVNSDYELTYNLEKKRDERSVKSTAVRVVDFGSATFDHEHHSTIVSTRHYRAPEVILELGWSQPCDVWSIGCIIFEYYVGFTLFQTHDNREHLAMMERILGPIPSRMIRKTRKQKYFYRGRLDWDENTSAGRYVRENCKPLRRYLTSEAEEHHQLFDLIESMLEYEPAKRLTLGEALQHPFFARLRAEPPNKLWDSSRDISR
T1 sequence (O14733 whole entry): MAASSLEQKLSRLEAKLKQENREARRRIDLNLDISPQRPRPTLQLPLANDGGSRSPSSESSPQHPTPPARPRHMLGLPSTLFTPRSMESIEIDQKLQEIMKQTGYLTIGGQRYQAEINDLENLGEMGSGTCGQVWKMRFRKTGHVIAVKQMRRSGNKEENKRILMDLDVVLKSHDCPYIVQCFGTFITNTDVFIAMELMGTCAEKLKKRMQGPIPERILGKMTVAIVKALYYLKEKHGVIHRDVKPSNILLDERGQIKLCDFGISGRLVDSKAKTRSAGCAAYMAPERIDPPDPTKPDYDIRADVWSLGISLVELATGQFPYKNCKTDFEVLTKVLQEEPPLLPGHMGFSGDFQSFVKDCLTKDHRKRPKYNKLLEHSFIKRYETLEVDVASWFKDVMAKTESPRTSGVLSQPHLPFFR
T14 sequence (P05771 whole entry): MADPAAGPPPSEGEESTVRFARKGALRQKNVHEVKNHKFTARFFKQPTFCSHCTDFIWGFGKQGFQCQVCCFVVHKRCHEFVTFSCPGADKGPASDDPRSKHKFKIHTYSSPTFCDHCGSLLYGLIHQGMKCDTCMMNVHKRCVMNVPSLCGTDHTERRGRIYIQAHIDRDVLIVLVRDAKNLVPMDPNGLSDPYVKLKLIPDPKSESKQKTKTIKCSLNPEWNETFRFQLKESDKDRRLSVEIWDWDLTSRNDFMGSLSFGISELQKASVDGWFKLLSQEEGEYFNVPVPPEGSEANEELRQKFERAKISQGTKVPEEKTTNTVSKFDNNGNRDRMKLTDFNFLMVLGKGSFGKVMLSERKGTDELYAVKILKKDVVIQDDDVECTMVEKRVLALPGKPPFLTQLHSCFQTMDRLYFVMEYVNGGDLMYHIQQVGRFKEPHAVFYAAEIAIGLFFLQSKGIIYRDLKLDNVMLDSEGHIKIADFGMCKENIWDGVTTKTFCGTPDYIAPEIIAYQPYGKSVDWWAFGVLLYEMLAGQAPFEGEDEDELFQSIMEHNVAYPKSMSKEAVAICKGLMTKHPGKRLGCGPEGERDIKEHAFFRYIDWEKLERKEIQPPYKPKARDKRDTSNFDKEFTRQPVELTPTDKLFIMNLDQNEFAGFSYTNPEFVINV
T4 sequence (O75582 whole entry): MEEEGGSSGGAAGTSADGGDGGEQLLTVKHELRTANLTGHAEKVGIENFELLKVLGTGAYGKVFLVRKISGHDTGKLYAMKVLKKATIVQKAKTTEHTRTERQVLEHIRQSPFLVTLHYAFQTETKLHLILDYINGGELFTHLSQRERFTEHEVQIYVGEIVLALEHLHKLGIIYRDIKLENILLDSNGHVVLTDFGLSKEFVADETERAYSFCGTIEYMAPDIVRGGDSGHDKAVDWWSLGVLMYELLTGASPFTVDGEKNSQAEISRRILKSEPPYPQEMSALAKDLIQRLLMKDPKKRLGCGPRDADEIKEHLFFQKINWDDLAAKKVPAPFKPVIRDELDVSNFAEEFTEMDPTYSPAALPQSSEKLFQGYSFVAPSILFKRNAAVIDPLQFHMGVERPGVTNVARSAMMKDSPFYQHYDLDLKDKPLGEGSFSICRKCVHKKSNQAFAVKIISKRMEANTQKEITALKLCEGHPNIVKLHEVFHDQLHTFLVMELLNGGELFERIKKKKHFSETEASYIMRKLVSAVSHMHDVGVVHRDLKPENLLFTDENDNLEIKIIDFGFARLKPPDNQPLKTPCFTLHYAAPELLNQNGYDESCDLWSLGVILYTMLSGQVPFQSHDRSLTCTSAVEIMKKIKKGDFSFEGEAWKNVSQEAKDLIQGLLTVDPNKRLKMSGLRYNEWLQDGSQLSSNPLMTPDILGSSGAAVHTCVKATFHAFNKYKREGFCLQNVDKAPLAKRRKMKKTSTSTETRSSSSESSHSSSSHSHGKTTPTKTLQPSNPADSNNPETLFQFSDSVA
T11 sequence (Q9HBH9 whole entry): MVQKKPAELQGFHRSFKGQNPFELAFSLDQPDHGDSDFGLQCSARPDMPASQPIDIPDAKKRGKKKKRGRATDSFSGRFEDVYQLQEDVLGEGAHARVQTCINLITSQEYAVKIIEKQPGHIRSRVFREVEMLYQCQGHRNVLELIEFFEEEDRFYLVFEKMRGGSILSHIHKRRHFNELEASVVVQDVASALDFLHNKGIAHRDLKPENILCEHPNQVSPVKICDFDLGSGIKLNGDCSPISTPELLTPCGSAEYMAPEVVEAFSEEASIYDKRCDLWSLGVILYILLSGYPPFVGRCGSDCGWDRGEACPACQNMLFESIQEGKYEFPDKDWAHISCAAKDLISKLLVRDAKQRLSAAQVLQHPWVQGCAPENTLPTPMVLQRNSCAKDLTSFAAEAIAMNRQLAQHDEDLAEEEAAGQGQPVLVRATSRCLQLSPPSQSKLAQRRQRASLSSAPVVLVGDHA
T2 sequence (Q16644 whole entry): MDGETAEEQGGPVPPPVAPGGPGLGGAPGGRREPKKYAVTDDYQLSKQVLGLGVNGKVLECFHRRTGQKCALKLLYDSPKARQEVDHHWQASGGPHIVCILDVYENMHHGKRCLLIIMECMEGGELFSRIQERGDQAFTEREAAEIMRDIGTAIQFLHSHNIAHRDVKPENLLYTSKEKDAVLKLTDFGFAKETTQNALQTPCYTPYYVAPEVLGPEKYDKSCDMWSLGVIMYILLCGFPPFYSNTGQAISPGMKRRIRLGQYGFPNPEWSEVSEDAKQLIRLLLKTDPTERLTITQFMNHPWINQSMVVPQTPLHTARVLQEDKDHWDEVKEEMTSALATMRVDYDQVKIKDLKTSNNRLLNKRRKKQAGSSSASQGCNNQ
T13 sequence (Q13554 whole entry): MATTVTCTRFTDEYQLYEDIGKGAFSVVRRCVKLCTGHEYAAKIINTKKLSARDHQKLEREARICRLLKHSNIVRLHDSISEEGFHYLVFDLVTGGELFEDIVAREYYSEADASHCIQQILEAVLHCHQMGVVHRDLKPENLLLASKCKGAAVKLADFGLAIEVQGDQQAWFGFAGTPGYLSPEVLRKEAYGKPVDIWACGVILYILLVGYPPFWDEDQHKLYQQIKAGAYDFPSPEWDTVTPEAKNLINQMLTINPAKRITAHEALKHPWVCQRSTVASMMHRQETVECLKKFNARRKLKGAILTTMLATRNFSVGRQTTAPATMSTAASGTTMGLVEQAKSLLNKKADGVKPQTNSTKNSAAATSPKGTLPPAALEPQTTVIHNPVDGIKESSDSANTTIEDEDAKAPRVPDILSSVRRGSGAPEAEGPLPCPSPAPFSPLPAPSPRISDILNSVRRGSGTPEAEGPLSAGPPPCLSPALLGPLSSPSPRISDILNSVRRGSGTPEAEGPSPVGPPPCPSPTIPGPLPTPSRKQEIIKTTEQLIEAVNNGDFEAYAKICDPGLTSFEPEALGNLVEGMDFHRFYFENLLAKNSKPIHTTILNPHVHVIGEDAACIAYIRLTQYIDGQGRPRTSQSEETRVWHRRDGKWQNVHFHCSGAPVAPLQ
T5 sequence (P07948 1-491 isoform P07948-2): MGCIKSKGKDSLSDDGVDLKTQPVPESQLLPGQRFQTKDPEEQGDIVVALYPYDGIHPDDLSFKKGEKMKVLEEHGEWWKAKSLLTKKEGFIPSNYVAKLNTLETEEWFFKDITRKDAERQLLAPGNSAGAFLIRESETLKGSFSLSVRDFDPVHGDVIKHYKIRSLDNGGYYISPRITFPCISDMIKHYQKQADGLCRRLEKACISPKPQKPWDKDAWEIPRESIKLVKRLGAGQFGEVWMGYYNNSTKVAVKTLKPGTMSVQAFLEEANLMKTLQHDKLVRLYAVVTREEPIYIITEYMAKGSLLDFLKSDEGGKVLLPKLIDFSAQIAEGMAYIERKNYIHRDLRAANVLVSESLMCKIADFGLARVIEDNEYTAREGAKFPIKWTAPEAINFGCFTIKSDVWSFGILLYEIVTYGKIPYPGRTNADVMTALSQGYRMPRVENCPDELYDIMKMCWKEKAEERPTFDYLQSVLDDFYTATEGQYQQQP
T15 sequence (P23443 whole entry): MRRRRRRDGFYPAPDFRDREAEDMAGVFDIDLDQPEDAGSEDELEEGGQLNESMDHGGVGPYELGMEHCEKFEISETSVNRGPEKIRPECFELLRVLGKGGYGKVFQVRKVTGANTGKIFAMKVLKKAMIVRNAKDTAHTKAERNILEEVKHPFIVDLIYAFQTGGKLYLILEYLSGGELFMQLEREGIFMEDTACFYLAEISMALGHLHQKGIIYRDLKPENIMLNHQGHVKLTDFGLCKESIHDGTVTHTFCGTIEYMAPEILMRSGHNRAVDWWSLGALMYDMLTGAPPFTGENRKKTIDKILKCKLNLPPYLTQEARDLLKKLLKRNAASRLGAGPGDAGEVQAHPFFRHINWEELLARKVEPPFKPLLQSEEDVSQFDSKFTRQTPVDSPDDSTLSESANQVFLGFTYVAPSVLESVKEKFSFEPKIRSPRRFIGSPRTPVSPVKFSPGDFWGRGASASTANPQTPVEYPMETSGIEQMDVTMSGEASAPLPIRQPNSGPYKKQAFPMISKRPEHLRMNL

Broadly, the remaining activity is the signal under treatment as a percentage of the control signal. As a reminder, the inhibition is how much of the control response was suppressed. With `[H]/N=C1/NC(=O)C(=Cc2ccc3c(c2)CCO3)S1` [CaNDY, (Z)-5-[(2,3-dihydrobenzofuran-5-yl)methylene]-2-iminothiazolidin-4-one], the “%Activity” value in assay [1] was 101.7%; in assay [6] (CaNDY 1 µM relative to DMSO), 9.0%; in assay [11], 101.0%. Also, the remaining activity at 1 µM in assay [2] turned out to be 103%; in [3], 94%; in assay [4], 98.1%; in assay [5] it was 98%; in assay [7] it was 91.9%; in assay [12] it was 90.3%. The remaining activity at 1 µM in assay [13] worked out at 104%; in assay [14], 98.2%; in [15], 83.8%; in [17], 89.7%; in assay [18], 36.5%. The inhibition at 1 µM in assay [6] (1 μM CaNDY, read-out: percentage inhibition) was greater than 90%. The “protein expression of CK2α” value in assay [8] was “did not decrease”. Besides, the 3xFLAG-DYRK1A level result in assay [9] is reported as “decreased the 3xFLAG-DYRK1A level”. In assay [10], the “inhibition of luminescence activity of CDC37-nanoKAZ” value was “did not inhibit”. Moreover, the “expression of mRNA coding for DYRK1A” value in [16] is “slightly decreased”.
